Data taken from the NIST ThermoML archive (doi:10.1016/j.tca.2010.05.009).
± gives the expanded uncertainty stated by the source.

Conditions: Crystal; Differential scanning calorimeter

CC(C)Cc1ccc(C(C)C(=O)O)cc1 (stereo unspecified) [ibuprofen]
Normal melting temperature: 75.1 ± 1 °C
